Data from ChEMBL document CHEMBL1201862, “PubChem BioAssay data set” (2004).
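Where inhibition never reached the appropriate level, the endpoint shown equals the highest concentration tested. Otherwise, values were interpolated linearly from a five-concentration, 48-hour dose response in 96-well plates. At the GI50, growth is halved.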 Active and inactive are the calls of the source. Rule as the data show it: active = GI50 up to about 1.1 µM and inactive = higher.

Key:
Experiment in all cases: NCI anticancer screen, dose series, 48 h
[1] = test system: OVCAR-5
[2] = test system: CCRF-CEM
[3] = test system: A498
[4] = test system: SR
[5] = test system: SF-268
[6] = test system: CAKI-1
[7] = test system: HCC 2998
[8] = test system: LOX IMVI
[9] = test system: MOLT-4
[10] = test system: NCI-H522
[11] = test system: SF-295
[12] = test system: UO-31
[13] = test system: K562
[14] = test system: HCT-15
[15] = test system: SNB-19
[16] = test system: Hs-578T
[17] = test system: OVCAR-8
[18] = test system: 786-0
[19] = test system: DU-145
[20] = test system: HL-60
[21] = test system: T47D
[22] = test system: NCI-H226
[23] = test system: HOP-92
[24] = test system: Malme-3M
[25] = test system: A549
[26] = test system: MDA-MB-231
[27] = test system: BT-549
[28] = test system: SF-539
[29] = test system: HOP-62
[30] = test system: SK-OV-3
[31] = test system: MDA-N
[32] = test system: NCI-H23
[33] = test system: SN12C
[34] = test system: KM12
[35] = test system: SK-MEL-28
[36] = test system: SW-620
[37] = test system: ACHN
[38] = test system: TK-10
[39] = test system: MDA-MB-435
[40] = test system: PC-3
[41] = test system: MCF7
[42] = test system: SNB-75
[43] = test system: NCI-H460
[44] = test system: OVCAR-4
[45] = test system: U-251
[46] = test system: EKVX
[47] = test system: SK-MEL-5
[48] = test system: IGROV-1
[49] = test system: HT-29
[50] = test system: UACC-62
[51] = test system: NCI/ADR-RES
[52] = test system: RXF 393
[53] = test system: SK-MEL-2
[54] = test system: HCT-116
[55] = test system: UACC-257
[56] = test system: COLO 205
[57] = test system: M14
[58] = test system: OVCAR-3
[59] = test system: RPMI-8226

O=C1c2c(F)c(F)c(F)c(F)c2SC2=Nc3cccc4cccc(c34)N12
GI50 [1]: 16.1 µM (inactive) | GI50 [2]: 3.31 µM (inactive) | GI50 [3]: 18.5 µM (inactive) | GI50 [4]: 2.13 µM (inactive) | GI50 [5]: 3.61 µM (inactive) | GI50 [6]: 14.9 µM (inactive) | GI50 [7]: 13.9 µM (inactive) | GI50 [8]: 2.77 µM (inactive) | GI50 [9]: 2.16 µM (inactive) | GI50 [10]: 2.54 µM (inactive) | GI50 [11]: 14.5 µM (inactive) | GI50 [12]: 9.16 µM (inactive) | GI50 [13]: 2.02 µM (inactive) | GI50 [14]: 4.92 µM | GI50 [15]: 8.09 µM (inactive) | GI50 [16]: 2.86 µM (inactive) | GI50 [17]: 5.41 µM (inactive) | GI50 [18]: 5.51 µM (inactive) | GI50 [19]: 12.2 µM (inactive) | GI50 [20]: 2.07 µM (inactive) | GI50 [21]: 1.56 µM (inactive) | GI50 [22]: 11.4 µM (inactive) | GI50 [23]: 2.37 µM (inactive) | GI50 [24]: 3.48 µM (inactive) | GI50 [25]: 18.5 µM (inactive) | GI50 [26]: 3.24 µM (inactive) | GI50 [27]: 10.9 µM (inactive) | GI50 [28]: 6.18 µM (inactive) | GI50 [29]: 13.7 µM (inactive) | GI50 [30]: 4.14 µM (inactive) | GI50 [31]: 5.05 µM (inactive) | GI50 [32]: 3.88 µM (inactive) | GI50 [33]: 3.79 µM (inactive) | GI50 [34]: 3.05 µM (inactive) | GI50 [35]: 4.27 µM (inactive) | GI50 [36]: 3.29 µM (inactive) | GI50 [37]: 7.05 µM (inactive) | GI50 [38]: 13.3 µM (inactive) | GI50 [39]: 4.94 µM (inactive) | GI50 [40]: 5.68 µM (inactive) | GI50 [41]: 3.78 µM (inactive) | GI50 [42]: 12.1 µM (inactive) | GI50 [43]: 10 µM (inactive) | GI50 [44]: 3.49 µM (inactive) | GI50 [45]: 3.78 µM (inactive) | GI50 [46]: 9.79 µM (inactive) | GI50 [47]: 14.1 µM (inactive) | GI50 [48]: 11.4 µM (inactive) | GI50 [49]: 7.48 µM (inactive) | GI50 [50]: 4.22 µM (inactive) | GI50 [51]: 2.77 µM (inactive) | GI50 [52]: 4.1 µM (inactive) | GI50 [53]: 2.75 µM (inactive) | GI50 [54]: 4.08 µM (inactive) | GI50 [55]: 5.19 µM (inactive) | GI50 [56]: 9.35 µM (inactive) | GI50 [57]: 2.92 µM (inactive) | GI50 [58]: 3.21 µM (inactive) | GI50 [59]: 2.62 µM (inactive)

O=C(Nc1ccc2[nH]c(C(=O)N3CC(CCl)c4c3cc([N+](=O)[O-])c3ccccc43)cc2c1)c1cc2ccccc2o1 (configuration not stated)
GI50 [1]: > 100 µM (inactive) | GI50 [2]: 46.1 µM (inactive) | GI50 [3]: > 57.7 µM (inactive) | GI50 [4]: 95.9 µM (inactive) | GI50 [5]: > 100 µM (inactive) | GI50 [6]: > 100 µM (inactive) | GI50 [7]: > 46.9 µM (inactive) | GI50 [8]: > 51.2 µM (inactive) | GI50 [10]: > 100 µM (inactive) | GI50 [11]: 395 µM (inactive) | GI50 [12]: > 100 µM (inactive) | GI50 [13]: > 100 µM (inactive) | GI50 [14]: > 63.4 µM | GI50 [15]: > 100 µM (inactive) | GI50 [16]: > 100 µM (inactive) | GI50 [17]: > 55.6 µM (inactive) | GI50 [18]: > 100 µM (inactive) | GI50 [19]: > 51.6 µM (inactive) | GI50 [20]: 22.1 µM (inactive) | GI50 [21]: > 55.2 µM (inactive) | GI50 [22]: 48.9 µM (inactive) | GI50 [23]: > 58.5 µM (inactive) | GI50 [24]: > 100 µM (inactive) | GI50 [25]: > 100 µM (inactive) | GI50 [26]: > 63 µM (inactive) | GI50 [27]: 38.2 µM (inactive) | GI50 [28]: > 1100 µM (inactive) | GI50 [29]: > 100 µM (inactive) | GI50 [30]: > 100 µM (inactive) | GI50 [31]: > 100 µM (inactive) | GI50 [32]: > 55.7 µM (inactive) | GI50 [33]: > 100 µM (inactive) | GI50 [34]: > 100 µM (inactive) | GI50 [35]: > 58.1 µM (inactive) | GI50 [36]: > 58.1 µM (inactive) | GI50 [37]: 44.8 µM (inactive) | GI50 [38]: > 54.5 µM (inactive) | GI50 [39]: > 100 µM (inactive) | GI50 [40]: > 50.6 µM (inactive) | GI50 [41]: 23 µM (inactive) | GI50 [42]: > 56.6 µM (inactive) | GI50 [43]: > 37.5 µM (inactive) | GI50 [44]: > 100 µM (inactive) | GI50 [45]: > 54.3 µM (inactive) | GI50 [46]: > 100 µM (inactive) | GI50 [47]: > 100 µM (inactive) | GI50 [48]: > 51.6 µM (inactive) | GI50 [49]: > 100 µM (inactive) | GI50 [50]: > 100 µM (inactive) | GI50 [51]: > 50.6 µM (inactive) | GI50 [52]: > 1100 µM (inactive) | GI50 [53]: > 57 µM (inactive) | GI50 [54]: > 100 µM (inactive) | GI50 [55]: > 100 µM (inactive) | GI50 [56]: > 58.1 µM (inactive) | GI50 [57]: > 100 µM (inactive) | GI50 [58]: > 100 µM (inactive) | GI50 [59]: > 100 µM (inactive)
